# Measurements from US20140051729A1, “COMPOSITIONS AND METHODS FOR TREATING DEGENERATIVE MUSCLE CONDITIONS” (University of Washington, priority 2011, published 2014).
# Legend:
# mdx mice = assay: EDL muscle myography in mdx mice; type: in vivo, mouse; conditions: THI-oxime IP twice-daily two weeks, 75 ug per day, at 120 Hz; vehicle 58 at 100 Hz
# Method: The effect of THI administration on muscle function and recovery in mdx mice was analyzed. The mice were injected intraperitoneally with THI in PBS or vehicle alone (PBS) twice-daily for two weeks. Total amount of THI delivered per day was 75 ug. Extensor digitorum longus (EDL) muscles were excised from the mice and equilibrated in ringer's solution with 95% O2/5% CO2 for a minimum of 15 minutes prior to stimulation. Myography was conducted using a DMT 820S myograph and data was recorded using PowerLab 4/30 acquisition system with LabChart Pro software v7.3.1 (both from ADI instruments, Colorado Springs, Colo.). Stimulations were conducted with a Grass Instrument S88X system (Grass Technologies, West Warwick, R.I.). Muscles were stimulated to establish optimal fiber length (Lf) and voltage at which maximum tetanic force was measured at 120 Hz within a 450 ms duration.
# Specific force was calculated as previously described in Gregorevic P. et al. (Gregorevic P. et al., Muscle Nerve. 2004 September; 30(3):295-304, PMID#15318340) by normalizing to whole muscle cross-sectional area (CSA). CSA is the quotient of […] muscle mass over the optimal muscle length (Lo) which is defined as the product of muscle fiber length (Lf) with the fiber length ratio (0.44 for EDL) and mammalian muscle density (1.06).
# Muscle recovery was measured after muscle was fatigued with stimulation over 6 minutes. […] Recovery was determined by examining muscle force at 5, 10, and 15 minutes after stimulation. […] Therefore, the administration of THI improved muscle recovery and function in dystrophic mice.
# The effect of THI-oxime administration on muscle function and recovery in mdx mice was analyzed. The mice were injected intraperitoneally with THI-oxime (n=3) or PBS vehicle alone (n=4) twice-daily for two weeks and then analyzed between 1-4 days following the final day of injection. Total amount of THI-oxime delivered per day was 75 ug. Prior to euthanasia, the animals were anesthetized with 0.5 mg/g weight avertin diluted in PBS. EDL muscles were excised from the mice and equilibrated in ringer's solution (120 mM NaCl, 4.7 mM KCl, 3.15 mM MgCl2, 1.3 mM NaH2PO4, 25 mM NaHCO3, 11 mM Glucose, 1.25 mM CaCl2, pH 7.2) with 95% O2/5% CO2 for a minimum of 15 minutes prior to stimulation. All functional experiments were carried out with buffer solutions at 25° C. under constant oxygenation. Myography was conducted using a DMT 820S myograph and data was recorded using PowerLab 4/30 acquisition system with LabChart Pro software v7.3.1 (both from ADI instruments, Colorado Springs, Colo.). […] Muscles were stimulated to establish optimal fiber length (Lf) and voltage at which maximum tetanic force was measured at 120 Hz within a 450 ms duration. […]
# [1] = tested on: dystrophic flies (w; +/+; Dys^det1/Dys^det1); assay: Myofibril analysis of muscle wasting in dystrophic flies fed S1P promoting agents; type: in vivo, Drosophila; conditions: 217 μM in feed, three feeding cycles
# Method: The effect of THI, a derivative of THI ((E)-1-(4-((1R,2S,3R)-1,2,3,4-tetrahydroxybutyl)-1H-imidazol-2-yl)-ethanone oxime) (“THI-oxime”), and a sphingosine analog (FTY720) on muscle wasting in dystrophic Drosopila flies was observed. Before feeding, 4 day old dystrophic flies (genotype: w; +/+; Dys^det1/Dys^det1) were placed in empty vials and starved for 6 hours. The flies were then provided access to one of a solution of 0.05 mg/mL (217 μM) 2-Acetyl-4(5)-tetrahydroxybutyl Imidazole (THI), or 217 μM FTY720, or 217 μM THI-oxime, in 5% light corn syrup in water for 16-18 hrs. After feeding, the flies were placed in new yeasted vials for 6-7 hrs. Flies were then transferred to empty vials with access to a 217 μM solution of THI, FTY720 or THI-oxime in a 5% light corn syrup in water for 16-18 hrs. This feeding cycle was repeated for a third time. After feeding for three cycles, the flies were placed in new yeasted vials. The 7-day old flies that had been administered the THI-oxime were analyzed immediately after the last feeding. The flies that has been administered THI and FTY720 were analyzed as 10-day old flies, three days after the last feeding with THI and FTY720.
# Myofibril immunochemistry analysis was performed as disclosed herein. For each treatment group, 5 flies were analyzed, and 3 muscles per fly and 2 myofibrils per muscle were analyzed. Two tailed Student's t test was used to evaluate significance.
# Flies were dipped in 95% EtOH and then dissected in 1×PBS (pH 7.4). Heads and abdomens were removed, and the thoraxes opened. Samples were stained using a modified ovary staining protocol 3. Samples were then fixed in 5% paraformaldehyde (Electron Microscopy Sciences) for 1 hour, rinsed in PBT (PBS/0.2% Triton X-100 v/v) 4 times, and then blocked for 1 hour in PBTB (PBT, 0.4% BSA w/v, 5% Normal Goat Serum v/v) at room temperature. […] For each genotype, 4-5 flies were analyzed, and 6-7 muscles per fly were analyzed.
# mdx:myf5^nlacz/+ mice = assay: Intramuscular S1P after CTX injury in mdx:Myf5nlacZ/+ mice (x-gal, myogenin, eMyHC staining); type: in vivo, mouse
# Method: S1P is involved in muscle satellite cell turnover, myoblast differentiation, and muscle regeneration in non-diseased mice. […] The effects of S1P treatment were examined following CTX induced acute injury in dystrophic muscles. To identify myogenic cells, mdx:myf5^nlacz/+ mice were used carrying the nuclear lacZ reporter driven by the endogenous Myf5 gene. CTX was applied to both TA muscles (n=3 mice, 3 month-old mdx:myf5^nlacz/+ males), then S1P was injected intramuscularly into left TAs and a vehicle control into right TAs daily for the first three days following injury. TAs were harvested on day 4 post injury for analysis of β-galactosidase positive (Myf5+) nuclei.
# Right and left TAs of three, 3 month old male mdx4cv:Myf5nlacZ/+ were injected with […] cardiotoxin (Calbiochem) in PBS from Naja nigrcollis. For the dysferlinopathy study, right and left TAs of 9 month old male and female A/J mice (JAX Mice, Bar Harbor, Me.) were injected with […] cardiotoxin (Calbiochem) in PBS from Naja nigrcollis. S1P (Enzo; Calbiochem) preparation was done according to manufacturer's instructions. Briefly, S1P was dissolved in methanol (0.5 mg/ml) and aliquoted, then the solvent was evaporated with a stream of nitrogen to deposit a thin film on the inside of the tube. Aliquots were dissolved with 4 mg/ml BSA (fatty acid free) to make 500 uM stocks. Directly following cardiotoxin injection, 500 uM S1P in PBS with 4 mg/ml BSA was injected in left TAs (20 ul), daily until day 3 post-injury at which time animals were euthanized and muscles were harvested for freezing. Right TAs were injected with an equal volume of PBS with 4 mg/ml BSA as vehicle controls. In a separate experiment TAs of four 2.5 month-old female mdx4cv were injected with S1P or vehicle under the same conditions stated above, in the absence of injury.
# All mouse muscles were frozen directly in OCT with liquid nitrogen cooled in isopentane and sections of 8 μm thickness were obtained. Tissue for x-gal staining, was fixed for 10 min with 2% formaldehyde/0.2% glutaraldehyde and incubated overnight at 37° C. with staining buffer (PBS with 1 mg/ml x-gal, 5 mM potassium ferricyanide, 5 mM potassium ferrocyanide, and 2 mM […] (all from Fisher). Oil Red-O and Picrosirius red staining were done following established protocols. For eMyHC staining, tissue was first fixed with 2% formaldehyde for 5 min, treated with streptavidin/avidin blocking kit (Vector labs), and blocked with IgG block from M.O.M kit (Vector Labs) for 5 hrs at 4° C. Following blockade, concentrated mouse anti-eMyHC (clone F1.652 received at 357 μg/ml IgG) obtained from the developmental studies hybridoma bank (DHSB, University of Iowa) was administered at 1:400 dilution, overnight at 4° C. The remainder of the staining was done following mouse-on-mouse (M.O.M) kit staining instructions. For laminin staining tissue was also fixed with 2% formaldehyde for 5 min, and then treated with polyclonal rabbit anti-laminin (Sigma) for 1 hr at a 1:400 dilution in PBS+1% BSA. Following washes, Alexa Fluor 488 conjugated goat anti-rabbit IgG (Invitrogen) was administered at 1:800 dilution for 1 hr. Controls omitting the primary antibody were included with all staining. Staining quantifications were all done using ImageJ v1.40 (Wayne Rasband, NIH) cell counter plugin (Kurt De Vos, University of Sheffield). Calculations, statistics, and graphs were generated with Microsoft Excel. […]
# A/J mice = assay: S1P in dysferlinopathy model after CTX injury (picrosirius red fibrosis); type: in vivo, mouse; conditions: A/J mice 9 month old, S1P intramuscular daily three days, 6 days post injury, vs vehicle
# Method: The A/J mouse strain (JAX Mice, Bar Habor, Me.) lacks dysferlin and is a model for dysferlinopathy. The effects of S1P treatment of A/J mice was examined following CTX induced acute injury. CTX was applied to both TA muscles (2× male, 2× female, 9 month old), then S1P was injected intramuscularly into left TAs and a vehicle control (saline) in right TAs daily for the first three days following CTX injury. The TAs were harvested and examined for muscle fibrosis (picrosirius red staining) 6 days post injury.
# Right and left TAs of three, 3 month old male mdx4cv:Myf5nlacZ/+ were injected with […] cardiotoxin (Calbiochem) in PBS from Naja nigrcollis. For the dysferlinopathy study, right and left TAs of 9 month old male and female A/J mice (JAX Mice, Bar Harbor, Me.) were injected with […] cardiotoxin (Calbiochem) in PBS from Naja nigrcollis. S1P (Enzo; Calbiochem) preparation was done according to manufacturer's instructions. Briefly, S1P was dissolved in methanol (0.5 mg/ml) and aliquoted, then the solvent was evaporated with a stream of nitrogen to deposit a thin film on the inside of the tube. […]
# All mouse muscles were frozen directly in OCT with liquid nitrogen cooled in isopentane and sections of 8 μm thickness were obtained. […] Staining quantifications were all done using ImageJ v1.40 (Wayne Rasband, NIH) cell counter plugin (Kurt De Vos, University of Sheffield). […]
# Akt/mTOR signaling = assay: Western blot of uninjured TA muscle of mdx mice after intramuscular S1P; type: in vivo, mouse; conditions: three days of daily S1P injections, vs vehicle TA
# Method: To discern if the S1P dependent increase in mdx muscle fiber size was due to hypertrophy, the activation of Akt/mTOR signaling was examined. S1P induced hypertrophy has been described in cultured cardiomyocytes, which was accompanied by activation of Akt and S6 kinase. In turn, Akt and mTOR signaling via S6 kinase, an activator of ribosomal S6 implicated in protein synthesis, has been described as sufficient to induce skeletal muscle hypertrophy. Therefore it was determined if the increase in muscle fibers by S1P was mediated by Akt/mTOR signaling. Since THI induces a S1P increase throughout the body, S1P was administered directly into muscle in mdx mice and levels of activated/phosphorylated Akt, mTOR, and S6 were measured. S1P was injected directly into uninjured TA muscle to measure potential effects on these pathways in the absence of injury. As before, S1P was injected into left TAs and vehicle into right TAs of the same animals (FIG. 6a). […]
# Tissue for western blot analysis was snap frozen in liquid nitrogen and subsequently homogenized. […] Protein extracts were separated using BioRad Tris-HCl ready gels 4-20% linear gradient and transferred to polyvinylidene difluoride (PVDF) membranes with a wet transfer system (BioRad). […] The signals were detected using an enhanced chemiluminescence kit (Millipore) and CL-XPosure Films (Thermo Scientific) were analyzed using ImageJ.
smiles,measurement,setting,value
"C/C(=N\O)c1nc([C@@H](O)[C@H](O)[C@H](O)CO)c[nH]1 [THI-oxime, (E)-1-(4-((1R,2S,3R)-1,2,3,4-tetrahydroxybutyl)-1H-imidazol-2-yl)-ethanone oxime]",maximum specific force of EDL muscle,mdx mice,73 KN/m^2
same,wild-type myofibrils,"[1]; 7-day old flies, negative control 39.05%",67.62%
"CCCCCCCCCCCCC/C=C/[C@@H](O)[C@@H](N)COP(=O)(O)O [S1P, Sphingosine-1-phosphate]",numbers of Myf5+ nuclei in areas with severe CTX damage,"mdx:myf5^nlacz/+ mice; S1P intramuscular daily for three days, TAs harvested day 4, vs vehicle TA",four-fold increase
same,Myf5+ cells for the entire cross-sectional area of treated TA,"mdx:myf5^nlacz/+ mice; S1P intramuscular daily for three days, day 4, vs vehicle TA",gross increase
same,increase in the number of eMyHC+ fibers,mdx:myf5^nlacz/+ mice; S1P treated TAs vs vehicle,3.6 fold
same,size of regenerating myofibers (minimum diameter of largest eMyHC+ fibers),mdx:myf5^nlacz/+ mice; S1P treated TAs vs vehicle,significantly greater
same,number of myogenin positive nuclei,mdx:myf5^nlacz/+ mice; S1P treated vs vehicle treated CTX injured TAs,slightly higher but not significantly different
same,average percentage of fibrosis in CTX injured TA muscles,A/J mice,significantly decreased
same,levels of S6 and phosphorylated S6,Akt/mTOR signaling,significantly increased
same,levels of phosphorylated Akt and mTOR,Akt/mTOR signaling,not significantly higher
"CCCCCCCCc1ccc(CCC(N)(CO)CO)cc1 [FTY720, 2-amino-2-[2-(4-octylphenyl)ethyl]propane-1,3-diol]",wild-type myofibrils,"[1]; 10-day old flies, three days after last feeding",73.83%
